Experimental data as given in US8802665B2, “Pyrrolidine derivatives” (Hoffman-La Roche Inc., priority 2012, dated 2014).
Counter-ions that a name gives are not always drawn.

Target: human Cat S (Homo sapiens (Human), UniProt P25774)
Assay: Cathepsin enzyme inhibition assay (fluorogenic peptide substrate cleavage)
Assay type: biochemical
Details: human Cathepsin S 1 nM, substrate Z-Val-Val-Arg-AMC 20 μM, pH 6.5; read-out: Ic50 CatS: human
Description: Cathepsin Enzyme Inhibition Assay
Enzyme activity is measured by observing the increase in fluorescence intensity caused by cleavage of a peptide substrate containing a fluorophore whose emission is quenched in the intact peptide. • Assay buffer: 100 mM potassium phosphate pH 6.5, EDTA-Na 5 mM, Triton X-100 0.001%, DTT 5 mM. • Enzymes (all at 1 nM): human and mouse Cathepsin S, Cat K, Cat B, Cat L. • Substrate (20 μM): Z-Val-Val-Arg-AMC, except for Cat K which uses Z-Leu-Arg-AMC (both from Bachem). • Z=Benzyloxycarbonyl. • AMC=7-Amino-4-Methyl-Coumarin. • DTT=dithiothreitol. • Final volume: 100 μL. • Excitation 360 nm, Emission 465 nm.
Enzyme is added to the substance dilutions in 96-well microtitre plates and the reaction is started with substrate. Fluorescence emission is measured over 20 minutes, during which time a linear increase is observed in the absence of inhibitor. IC50 are calculated by standard methods.
Inhibition of human Cat S, mouse Cat S, human Cat K, human Cat B, human Cat L and mouse Cat L have been measured separately. The results obtained for human Cat S for representative compounds of the invention are expressed in the following table in μM.

Chain of human Cat S (P25774 115-331): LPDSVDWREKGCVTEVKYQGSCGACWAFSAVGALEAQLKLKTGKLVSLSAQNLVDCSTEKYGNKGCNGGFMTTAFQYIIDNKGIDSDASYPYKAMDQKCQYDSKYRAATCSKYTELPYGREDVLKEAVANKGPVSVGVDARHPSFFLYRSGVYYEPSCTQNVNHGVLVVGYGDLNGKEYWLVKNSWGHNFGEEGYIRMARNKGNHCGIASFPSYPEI

Structure (SMILES)	IC50
CC1(C)CCC(N2CCC2C(=O)N2C[C@H](S(=O)(=O)c3ccccc3Cl)C[C@H]2C(=O)NC2(C#N)CC2)CC1 (stereo partly drawn) [Example 3, (2S,4R)-4-(2-Chlorophenylsulfonyl)-N-(1-cyanocyclopropyl)-1-(1-(4,4-dimethylcyclohexyl)azetidine-2-carbonyl)pyrrolidine-2-carboxamide]	3.8 nM
N#CC1(NC(=O)[C@@H]2C[C@@H](S(=O)(=O)c3ccccc3Cl)CN2C(=O)C2CCN2C2CCN(CC(F)(F)F)CC2)CC1 (stereo partly drawn) [Example 7, (2S,4R)-4-(2-Chlorophenylsulfonyl)-N-(1-cyanocyclopropyl)-1-(1-(1-(2,2,2-trifluoroethyl)piperidin-4-yl)azetidine-2-carbonyl)pyrrolidine-2-carboxamide]	3.9 nM
CC1(C)CC(N2CCC2C(=O)N2C[C@H](S(=O)(=O)c3ccccc3Cl)C[C@H]2C(=O)NC2(C#N)CC2)CCO1 (stereo partly drawn) [Example 8, (2S,4R)-4-(2-Chlorophenylsulfonyl)-N-(1-cyanocyclopropyl)-1-(1-(2,2-dimethyltetrahydro-2H-pyran-4-yl)azetidine-2-carbonyl)pyrrolidine-2-carboxamide]	2.5 nM
N#CC1(NC(=O)[C@@H]2C[C@@H](S(=O)(=O)c3ccccc3Cl)CN2C(=O)C2CCN2C2CCCC2)CC1 (stereo partly drawn) [Example 9, (2S,4R)-4-(2-Chlorophenylsulfonyl)-N-(1-cyanocyclopropyl)-1-(1-cyclopentylazetidine-2-carbonyl)pyrrolidine-2-carboxamide]	2 nM
N#CC1(NC(=O)[C@@H]2C[C@@H](S(=O)(=O)c3ccccc3Cl)CN2C(=O)C2CCN2C2CCSCC2)CC1 (stereo partly drawn) [Example 10, (2S,4R)-4-(2-Chlorophenylsulfonyl)-N-(1-cyanocyclopropyl)-1-(1-(tetrahydro-2H-thiopyran-4-yl)azetidine-2-carbonyl)pyrrolidine-2-carboxamide]	2.2 nM
CS(=O)(=O)N1CCC(N2CCC2C(=O)N2C[C@H](S(=O)(=O)c3ccccc3Cl)C[C@H]2C(=O)NC2(C#N)CC2)CC1 (stereo partly drawn) [Example 12, (2S,4R)-4-(2-Chlorophenylsulfonyl)-N-(1-cyanocyclopropyl)-1-(1-(1-(methylsulfonyl)piperidin-4-yl)azetidine-2-carbonyl)pyrrolidine-2-carboxamide]	2.7 nM
CCOC(=O)N1CCC(N2CCC2C(=O)N2C[C@H](Sc3ccc(F)cc3Cl)C[C@H]2C(=O)NC2(C#N)CC2)CC1 (some centres unmarked) [Example 13]	6.7 nM
CCOC(=O)N1CCC(N2CCC2C(=O)N2C[C@H](Sc3ccc(Cl)cc3)C[C@H]2C(=O)NC2(C#N)CC2)CC1 (stereo partly drawn) [Example 15, Ethyl 4-(2-((2S,4R)-4-(4-chlorophenylthio)-2-(1-cyanocyclopropylcarbamoyl)pyrrolidine-1-carbonyl)azetidin-1-yl)piperidine-1-carboxylate]	121 nM
CCOC(=O)N1CCC(N2CCC2C(=O)N2C[C@H](Sc3ccccc3OC)C[C@H]2C(=O)NC2(C#N)CC2)CC1 (stereo partly drawn) [Example 16, Ethyl 4-(2-((2S,4R)-2-(1-cyanocyclopropylcarbamoyl)-4-(2-methoxyphenylthio)pyrrolidine-1-carbonyl)azetidin-1-yl)piperidine-1-carboxylate]	1740 nM
CCOC(=O)N1CCC(N2CCC2C(=O)N2C[C@H](Sc3ccccc3OC(F)(F)F)C[C@H]2C(=O)NC2(C#N)CC2)CC1 (stereo partly drawn) [Example 17, Ethyl 4-(2-((2S,4R)-2-(1-cyanocyclopropylcarbamoyl)-4-(2-(trifluoromethoxy)phenylthio)pyrrolidine-1-carbonyl)azetidin-1-yl)piperidine-1-carboxylate]	65.5 nM
CCOC(=O)N1CCC(N2CCC2C(=O)N2C[C@H](Sc3cccc(C(F)(F)F)c3)C[C@H]2C(=O)NC2(C#N)CC2)CC1 (stereo partly drawn) [Example 18, Ethyl 4-(2-((2S,4R)-2-(1-cyanocyclopropylcarbamoyl)-4-(3-(trifluoromethyl)phenylthio)pyrrolidine-1-carbonyl)azetidin-1-yl)piperidine-1-carboxylate]	8 nM

The next molecules have a lower IC50 than those just listed; values first:

IC50	Structure (SMILES)
1.7 nM	N#CC1(NC(=O)[C@@H]2C[C@@H](S(=O)(=O)c3ccccc3Cl)CN2C(=O)C2CCN2C2CCCCC2)CC1 (stereo partly drawn) [Example 1, (2S,4R)-4-(2-Chlorophenylsulfonyl)-N-(1-cyanocyclopropyl)-1-(1-cyclohexylazetidine-2-carbonyl)pyrrolidine-2-carboxamide]
1 nM	N#CC1(NC(=O)[C@@H]2C[C@@H](S(=O)(=O)c3ccccc3Cl)CN2C(=O)C2CCN2C2CCC(F)(F)CC2)CC1 (stereo partly drawn) [Example 2, (2S,4R)-4-(2-Chlorophenylsulfonyl)-N-(1-cyanocyclopropyl)-1-(1-(4,4-difluorocyclohexyl)azetidine-2-carbonyl)pyrrolidine-2-carboxamide]
0.9 nM	Cc1nsc(N2CCC(N3CCC3C(=O)N3C[C@H](S(=O)(=O)c4ccccc4Cl)C[C@H]3C(=O)NC3(C#N)CC3)CC2)n1 (stereo partly drawn) [Example 4, (2S,4R)-4-(2-Chlorophenylsulfonyl)-N-(1-cyanocyclopropyl)-1-(1-(1-(3-methyl-1,2,4-thiadiazol-5-yl)piperidin-4-yl)azetidine-2-carbonyl)pyrrolidine-2-carboxamide formate]
0.8 nM	N#CC1(NC(=O)[C@@H]2C[C@@H](S(=O)(=O)c3ccccc3Cl)CN2C(=O)C2CCN2C2CCOCC2)CC1 (stereo partly drawn) [Example 5, (2S,4R)-4-(2-Chlorophenylsulfonyl)-N-(1-cyanocyclopropyl)-1-(1-(tetrahydro-2H-pyran-4-yl)azetidine-2-carbonyl)pyrrolidine-2-carboxamide formate]
1.3 nM	CC(=O)N1CCC(N2CCC2C(=O)N2C[C@H](S(=O)(=O)c3ccccc3Cl)C[C@H]2C(=O)NC2(C#N)CC2)CC1 (stereo partly drawn) [Example 6, (2S,4R)-1-(1-(1-Acetylpiperidin-4-yl)azetidine-2-carbonyl)-4-(2-chlorophenylsulfonyl)-N-(1-cyanocyclopropyl)pyrrolidine-2-carboxamide]
1.7 nM	CCOC(=O)N1CCC(N2CCC2C(=O)N2C[C@H](S(=O)(=O)c3ccccc3Cl)C[C@H]2C(=O)NC2(C#N)CC2)CC1 (stereo partly drawn) [Example 11, Ethyl 4-(2-((2S,4R)-4-(2-chlorophenylsulfonyl)-2-(1-cyanocyclopropylcarbamoyl)pyrrolidine-1-carbonyl)azetidin-1-yl)piperidine-1-carboxylate]
1.5 nM	CCOC(=O)N1CCC(N2CCC2C(=O)N2C[C@H](S(=O)(=O)c3ccc(F)cc3Cl)C[C@H]2C(=O)NC2(C#N)CC2)CC1 (stereo partly drawn) [Example 14, Ethyl 4-(2-((2S,4R)-4-(2-chloro-4-fluorophenylsulfonyl)-2-(1-cyanocyclopropylcarbamoyl)pyrrolidine-1-carbonyl)azetidin-1-yl)piperidine-1-carboxylate]
1.8 nM	CCOC(=O)N1CCC(N2CCC2C(=O)N2C[C@H](S(=O)(=O)c3cccc(Cl)c3)C[C@H]2C(=O)NC2(C#N)CC2)CC1 (stereo partly drawn) [Example 19, Ethyl 4-(2-((2S,4R)-4-(3-chlorophenylsulfonyl)-2-(1-cyanocyclopropylcarbamoyl)pyrrolidine-1-carbonyl)azetidin-1-yl)piperidine-1-carboxylate]
1.4 nM	CCOC(=O)N1CCC(N2CCC2C(=O)N2C[C@H](S(=O)(=O)c3ccc(C)cc3)C[C@H]2C(=O)NC2(C#N)CC2)CC1 (stereo partly drawn) [Example 20, Ethyl 4-(2-((2S,4R)-2-(1-cyanocyclopropylcarbamoyl)-4-tosylpyrrolidine-1-carbonyl)azetidin-1-yl)piperidine-1-carboxylate]
